Measurements taken from the supplement of paper PMC10627819.

Assays:
S. aureus DSM 20231 [1] = test: Bliss interaction score (quartile over a dose matrix) (fitness difference); higher = more antagonism (negative = synergy)
In short: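 Growth was read as OD595 when cultures entered stationary phase, and each value was divided by the plate's robust no-drug mean and capped at 1. This normalised ratio is the fitness value, and fitness for each single drug came from the combination data. The Bliss score subtracts the expected fitness, taken as the product, from the observed fitness and is given as quartiles across technical, biological and donor/recipient replicates.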

S. aureus DSM 20231 [2] = test: fitness (endpoint OD595 vs no drug) (fraction); higher = more growth
In short: (§1)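 Each well of a 384-well plate received 30 µl of culture at OD595 0.01, or 55 µl for S. pneumoniae. TSB, LB Lennox or CY served as media at 37 °C. OD595 was taken every 30 min for 14 h and corrected by subtracting the first reading. Fitness is the optical density at stationary-phase entry divided by the robust mean of no-drug controls, capped at 1.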

B. subtilis 168 = test: as above
In short: as §1

S. aureus Newman = test: as above
In short: as §1

S. pneumoniae D39V = test: as above
In short: as §1

[3] = first compound 0.125 µg/mL, partner 0.0156 µg/mL
[4] = first compound 0.125 µg/mL, partner 0.0312 µg/mL
[5] = first compound 0.125 µg/mL, partner 0.0625 µg/mL
[6] = first compound 0.25 µg/mL, partner 0.0156 µg/mL
[7] = first compound 0.25 µg/mL, partner 0.0312 µg/mL
[8] = first compound 0.25 µg/mL, partner 0.0625 µg/mL
[9] = first compound 0.5 µg/mL, partner 0.0156 µg/mL
[10] = first compound 0.5 µg/mL, partner 0.0312 µg/mL
[11] = first compound 0.5 µg/mL, partner 0.0625 µg/mL
[12] = first compound 0.125 µg/mL, partner 0.375 µg/mL
[13] = first compound 0.125 µg/mL, partner 0.75 µg/mL
[14] = first compound 0.125 µg/mL, partner 1.5 µg/mL
[15] = first compound 0.25 µg/mL, partner 0.375 µg/mL
[16] = first compound 0.25 µg/mL, partner 0.75 µg/mL
[17] = first compound 0.25 µg/mL, partner 1.5 µg/mL
[18] = first compound 0.5 µg/mL, partner 1.5 µg/mL
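Throughout, for Bliss interaction score (quartile over a dose matrix): first quartile when negative (synergy) and third quartile when positive (antagonism).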

CC[C@H]1OC(=O)[C@H](C)[C@@H](O[C@H]2C[C@@](C)(OC)[C@@H](O)[C@H](C)O2)[C@H](C)[C@@H](O[C@@H]2O[C@H](C)C[C@H](N(C)C)[C@H]2O)[C@](C)(O)C[C@@H](C)CN(C)[C@H](C)[C@@H](O)[C@]1(C)O [Azithromycin] + CN1CCN(C2=Nc3ccccc3Oc3ccc(Cl)cc32)CC1 [Loxapine]
Bliss interaction score (S. aureus DSM 20231 [1]): -0.147

CC[C@H]1OC(=O)[C@H](C)[C@@H](O[C@H]2C[C@@](C)(OC)[C@@H](O)[C@H](C)O2)[C@H](C)[C@@H](O[C@@H]2O[C@H](C)C[C@H](N(C)C)[C@H]2O)[C@](C)(O)C[C@@H](C)CN(C)[C@H](C)[C@@H](O)[C@]1(C)O [Azithromycin] + CN(C)[C@@H]1C(O)=C(C(N)=O)C(=O)[C@@]2(O)C(O)=C3C(=O)c4c(O)ccc(Cl)c4[C@@](C)(O)[C@H]3C[C@@H]12 [Chlortetracycline]
fitness (S. aureus DSM 20231 [2]; first compound 0.125 µg/mL, partner 0.006 µg/mL, one replicate): 0.629
fitness (S. aureus DSM 20231 [2]; first compound 0.125 µg/mL, partner 0.024 µg/mL): 0.112
fitness (S. aureus DSM 20231 [2]; first compound 0.125 µg/mL, partner 0.048 µg/mL): 0.0779
fitness (S. aureus DSM 20231 [2]; first compound 0.25 µg/mL, partner 0.006 µg/mL, one replicate): 0.46
fitness (S. aureus DSM 20231 [2]; first compound 0.25 µg/mL, partner 0.024 µg/mL): 0.0335
fitness (S. aureus DSM 20231 [2]; first compound 0.25 µg/mL, partner 0.048 µg/mL): 0.0451
fitness (S. aureus DSM 20231 [2]; first compound 0.5 µg/mL, partner 0.006 µg/mL, one replicate): 0.0187
fitness (S. aureus DSM 20231 [2]; first compound 0.5 µg/mL, partner 0.012 µg/mL): 0.0274
fitness (S. aureus DSM 20231 [2]; first compound 0.5 µg/mL, partner 0.024 µg/mL): 0.0241
fitness (S. aureus DSM 20231 [2]; first compound 0.5 µg/mL, partner 0.048 µg/mL): 0.0364
fitness (B. subtilis 168; first compound 0.25 µg/mL, partner 0.0475 µg/mL): 0.824
fitness (B. subtilis 168; first compound 2 µg/mL, partner 0.0475 µg/mL, one replicate): 0.0292
fitness (B. subtilis 168; first compound 2 µg/mL, partner 0.095 µg/mL, one replicate): 0.0192
fitness (B. subtilis 168; first compound 2 µg/mL, partner 0.19 µg/mL, one replicate): 0.025

CC[C@H]1OC(=O)[C@H](C)[C@@H](O[C@H]2C[C@@](C)(OC)[C@@H](O)[C@H](C)O2)[C@H](C)[C@@H](O[C@@H]2O[C@H](C)C[C@H](N(C)C)[C@H]2O)[C@](C)(O)C[C@@H](C)CN(C)[C@H](C)[C@@H](O)[C@]1(C)O [Azithromycin] + CO[C@@]12[C@H](COC(N)=O)C3=C(C(=O)C(C)=C(N)C3=O)N1C[C@@H]1N[C@@H]12 [Mitomycin C]
fitness (S. aureus DSM 20231 [2]; [3]): 0.674
fitness (S. aureus DSM 20231 [2]; [4]): 0.661
fitness (S. aureus DSM 20231 [2]; [5]): 0.547
fitness (S. aureus DSM 20231 [2]; [6]): 0.701
fitness (S. aureus DSM 20231 [2]; [7]): 0.664
fitness (S. aureus DSM 20231 [2]; [8]): 0.491
fitness (S. aureus DSM 20231 [2]; [9]): 0.366
fitness (S. aureus DSM 20231 [2]; [10]): 0.314
fitness (S. aureus DSM 20231 [2]; [11]): 0.171
fitness (S. aureus Newman; [3]): 0.719
fitness (S. aureus Newman; [4]): 0.671
fitness (S. aureus Newman; [5]): 0.559
fitness (S. aureus Newman; [6]): 0.726
fitness (S. aureus Newman; [7]): 0.638
fitness (S. aureus Newman; [8]): 0.551
fitness (S. aureus Newman; [9]): 0.561
fitness (S. aureus Newman; [10]): 0.53
fitness (S. aureus Newman; [11]): 0.365

CC[C@H]1OC(=O)[C@H](C)[C@@H](O[C@H]2C[C@@](C)(OC)[C@@H](O)[C@H](C)O2)[C@H](C)[C@@H](O[C@@H]2O[C@H](C)C[C@H](N(C)C)[C@H]2O)[C@](C)(O)C[C@@H](C)CN(C)[C@H](C)[C@@H](O)[C@]1(C)O [Azithromycin] + Cc1c(Cl)cccc1Nc1ccccc1C(=O)O [Tolfenamic]
Bliss interaction score (S. aureus DSM 20231 [1]): -0.292

CC[C@H]1OC(=O)[C@H](C)[C@@H](O[C@H]2C[C@@](C)(OC)[C@@H](O)[C@H](C)O2)[C@H](C)[C@@H](O[C@@H]2O[C@H](C)C[C@H](N(C)C)[C@H]2O)[C@](C)(O)C[C@@H](C)CN(C)[C@H](C)[C@@H](O)[C@]1(C)O [Azithromycin] + N[C@@H]1CONC1=O [Cycloserine D]
fitness (S. aureus DSM 20231 [2]; [12]): 0.935
fitness (S. aureus DSM 20231 [2]; [13]): 0.887
fitness (S. aureus DSM 20231 [2]; [14]): 0.948
fitness (S. aureus DSM 20231 [2]; [15]): 0.881
fitness (S. aureus DSM 20231 [2]; [16]): 0.869
fitness (S. aureus DSM 20231 [2]; [17]): 0.881
fitness (B. subtilis 168; first compound 0.25 µg/mL, partner 0.125 µg/mL): 0.946
fitness (B. subtilis 168; first compound 0.25 µg/mL, partner 0.25 µg/mL): 0.918
fitness (B. subtilis 168; first compound 0.25 µg/mL, partner 0.5 µg/mL): 0.892
fitness (B. subtilis 168; first compound 0.5 µg/mL, partner 0.125 µg/mL): 0.884
fitness (B. subtilis 168; first compound 0.5 µg/mL, partner 0.25 µg/mL): 0.854
fitness (B. subtilis 168; first compound 0.5 µg/mL, partner 0.5 µg/mL): 0.826
fitness (B. subtilis 168; first compound 2 µg/mL, partner 0.125 µg/mL, one replicate): 0.348
fitness (B. subtilis 168; first compound 2 µg/mL, partner 0.25 µg/mL, one replicate): 0.0742
fitness (B. subtilis 168; first compound 2 µg/mL, partner 0.5 µg/mL, one replicate): 0.066
fitness (S. aureus Newman; [12]): 0.887
fitness (S. aureus Newman; [13]): 0.906
fitness (S. aureus Newman; [14]): 0.898
fitness (S. aureus Newman; [15]): 0.868
fitness (S. aureus Newman; [16]): 0.908
fitness (S. aureus Newman; [17]): 0.905
fitness (S. aureus Newman; first compound 0.5 µg/mL, partner 0.375 µg/mL): 0.674
fitness (S. aureus Newman; [18]): 0.665

CC[C@H]1OC(=O)[C@H](C)[C@@H](O[C@H]2C[C@@](C)(OC)[C@@H](O)[C@H](C)O2)[C@H](C)[C@@H](O[C@@H]2O[C@H](C)C[C@H](N(C)C)[C@H]2O)[C@](C)(O)C[C@@H](C)CN(C)[C@H](C)[C@@H](O)[C@]1(C)O [Azithromycin] + O=C(O)c1cc(-c2ccc(F)cc2F)ccc1O [Diflunisal]
Bliss interaction score (S. aureus DSM 20231 [1]): -0.146

CN(C)CCCN1c2ccccc2Sc2ccc(Cl)cc21 [Chlorpromazine] + CC(=O)NC[C@H]1CN(c2ccc(N3CCOCC3)c(F)c2)C(=O)O1 [Linezolid]
Bliss interaction score (S. aureus DSM 20231 [1]): -0.236

CN(C)CCCN1c2ccccc2Sc2ccc(Cl)cc21 [Chlorpromazine] + CCC[C@@H]1C[C@@H](C(=O)N[C@@H]([C@H]2O[C@H](SC)[C@H](O)[C@@H](O)[C@H]2O)[C@@H](C)O)N(C)C1 [Lincomycin]
Bliss interaction score (S. aureus DSM 20231 [1]): -0.233

CN(C)CCCN1c2ccccc2Sc2ccc(Cl)cc21 [Chlorpromazine] + CN(C)C(=O)C(CCN1CCC(O)(c2ccc(Cl)cc2)CC1)(c1ccccc1)c1ccccc1 [Loperamide]
Bliss interaction score (S. aureus DSM 20231 [1]): -0.311

O=C(O)[C@H]1/C(=C/CO)O[C@@H]2CC(=O)N21 [Clavulanic acid] + C[n+]1ccc(-c2cc[n+](C)cc2)cc1 [Paraquat]
fitness (S. pneumoniae D39V; [18]): 0.99
fitness (S. pneumoniae D39V; first compound 0.5 µg/mL, partner 3 µg/mL): ≥ 1
fitness (S. pneumoniae D39V; first compound 0.5 µg/mL, partner 6 µg/mL): 0.991
fitness (S. pneumoniae D39V; first compound 1 µg/mL, partner 1.5 µg/mL): 0.973
fitness (S. pneumoniae D39V; first compound 1 µg/mL, partner 3 µg/mL): 0.962
fitness (S. pneumoniae D39V; first compound 1 µg/mL, partner 6 µg/mL): 0.941
fitness (S. pneumoniae D39V; first compound 2 µg/mL, partner 1.5 µg/mL): 0.875
fitness (S. pneumoniae D39V; first compound 2 µg/mL, partner 3 µg/mL): 0.896
fitness (S. pneumoniae D39V; first compound 2 µg/mL, partner 6 µg/mL): 0.863
fitness (B. subtilis 168; first compound 1.5 µg/mL, partner 1.25 µg/mL): 0.93
fitness (B. subtilis 168; first compound 1.5 µg/mL, partner 2.5 µg/mL): 0.96
fitness (B. subtilis 168; first compound 1.5 µg/mL, partner 5 µg/mL): 0.835
fitness (B. subtilis 168; first compound 3 µg/mL, partner 1.25 µg/mL): 0.87
fitness (B. subtilis 168; first compound 3 µg/mL, partner 2.5 µg/mL): 0.812
fitness (B. subtilis 168; first compound 3 µg/mL, partner 5 µg/mL): 0.77
fitness (B. subtilis 168; first compound 6 µg/mL, partner 1.25 µg/mL): 0.773
fitness (B. subtilis 168; first compound 6 µg/mL, partner 2.5 µg/mL): 0.728
fitness (B. subtilis 168; first compound 6 µg/mL, partner 5 µg/mL): 0.672
fitness (S. aureus Newman; first compound 0.03125 µg/mL, partner 1.25 µg/mL, one replicate): 0.952
fitness (S. aureus Newman; first compound 0.03125 µg/mL, partner 2.5 µg/mL, one replicate): 0.98
fitness (S. aureus Newman; first compound 0.03125 µg/mL, partner 5 µg/mL, one replicate): 0.99
fitness (S. aureus Newman; first compound 0.0625 µg/mL, partner 1.25 µg/mL, one replicate): 0.99
fitness (S. aureus Newman; first compound 0.0625 µg/mL, partner 2.5 µg/mL, one replicate): 0.983
fitness (S. aureus Newman; first compound 0.0625 µg/mL, partner 5 µg/mL, one replicate): ≥ 1
fitness (S. aureus Newman; first compound 0.125 µg/mL, partner 1.25 µg/mL, one replicate): 0.843
fitness (S. aureus Newman; first compound 0.125 µg/mL, partner 2.5 µg/mL, one replicate): 0.943
fitness (S. aureus Newman; first compound 0.125 µg/mL, partner 5 µg/mL, one replicate): 0.89
